Test systems include A549 NSCLC; COLO 205 colon; HT29 colon; K-562 leukemia; KM12 colon; MALME-3M melanoma; NCI-H23 lung; SK-MEL-2 melanoma; SNB-19 CNS; UACC-62 melanoma.
What all share (experiment): DTP human tumour cell line panel, 48 h

Structures are written as SMILES.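 Tested at 5 concentrations; 48 h exposure; 96-well plates; endpoints linearly interpolated, else capped at highest concentration. Abbreviation: GI50, concentration required for 50% inhibition of growth. TGI: concentration producing complete growth inhibition.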

As to `CCCC(CCC)NCC(O)c1cc(-c2ccc(C(F)(F)F)cc2)nc(C(F)(F)F)c1` (stereo unspecified), the GI50 in the assay on A549 NSCLC was 1.79 µM; in the assay with COLO 205 colon, 2 µM; in the assay on HT29 colon, 1.83 µM; with K-562 leukemia, 1.93 µM; in the assay on KM12 colon, 1.93 µM; in the assay on MALME-3M melanoma it was 2.05 µM. Further, the GI50 in the assay on NCI-H23 lung was 1.58 µM; in the assay on SK-MEL-2 melanoma, 2.27 µM; in the assay on SNB-19 CNS, 1.79 µM; with UACC-62 melanoma, 1.72 µM. The TGI stood at 3.28 µM in the assay with A549 NSCLC; 3.63 µM with COLO 205 colon; 3.32 µM in the assay on HT29 colon; 3.8 µM with K-562 leukemia; 3.42 µM with KM12 colon; 4.02 µM with MALME-3M melanoma. The total growth inhibition concentration (TGI) in the assay on NCI-H23 lung turned out to be 3.15 µM; in the assay with SK-MEL-2 melanoma, 3.92 µM; in the assay on SNB-19 CNS it was 3.42 µM; with UACC-62 melanoma, 3.25 µM.

With `O=C(CCc1nc(=S)[nH][nH]1)Nc1ccccc1Cl`, the total growth inhibition concentration (TGI) in the assay on A549 NSCLC, in the assay with COLO 205 colon, with HT29 colon, with K-562 leukemia, in the assay on KM12 colon and with MALME-3M melanoma was above 100 µM in each case. For the same compound, the total growth inhibition concentration (TGI) in the assay with NCI-H23 lung, with SK-MEL-2 melanoma, in the assay with SNB-19 CNS and in the assay on UACC-62 melanoma was above 100 µM throughout.

Take `Cc1cc(C)c(NC(=O)c2sc3nc4c(cc3c2N)C(=O)CCC4)c(C)c1`: the GI50 was 2.51 µM in the assay on A549 NSCLC; 3.23 µM in the assay on COLO 205 colon; 3.09 µM with HT29 colon; 1.9 µM with K-562 leukemia; 2.8 µM with KM12 colon; 1.83 µM in the assay with MALME-3M melanoma. The GI50 is 3.9 µM in the assay on NCI-H23 lung, 0.468 µM in the assay on SK-MEL-2 melanoma, 6.12 µM with SNB-19 CNS and 1.31 µM with UACC-62 melanoma. Also, the concentration for total growth inhibition (TGI) with A549 NSCLC was above 100 µM; in the assay with COLO 205 colon, above 100 µM; in the assay with HT29 colon it was 11.1 µM; in the assay with K-562 leukemia, above 100 µM; in the assay on KM12 colon, above 100 µM; in the assay on MALME-3M melanoma, above 100 µM. In addition, the TGI with NCI-H23 lung is above 100 µM; with SK-MEL-2 melanoma, 38.7 µM; with SNB-19 CNS, above 100 µM; in the assay on UACC-62 melanoma, above 100 µM.

On to `COc1ccc(-c2[nH]c3ccc(OC)cc3c2/C=C(\C#N)S(=O)(=O)c2ccccc2)cc1`, for which the GI50 was 2.01 µM in the assay on A549 NSCLC; 0.396 µM with COLO 205 colon; 0.435 µM in the assay on HT29 colon; 0.475 µM in the assay with K-562 leukemia; 0.653 µM with KM12 colon; 3.13 µM in the assay with MALME-3M melanoma. The GI50 with NCI-H23 lung was 0.965 µM; in the assay on SK-MEL-2 melanoma, 6.42 µM; with SNB-19 CNS it was 3.14 µM; with UACC-62 melanoma it was 0.644 µM. For the same compound, the TGI with A549 NSCLC is above 68.3 µM; in the assay on COLO 205 colon, 1.83 µM; with HT29 colon it was above 32.2 µM; with KM12 colon, 7.69 µM; in the assay on MALME-3M melanoma it was above 82.2 µM; with NCI-H23 lung, above 33.3 µM. The total growth inhibition concentration (TGI) with SK-MEL-2 melanoma is above 69.3 µM; with SNB-19 CNS, above 100 µM; in the assay with UACC-62 melanoma, above 61.1 µM.

On to `c1ccc(Sc2ccc(Cc3nc4cc5ccccc5cc4[nH]3)cc2)cc1`, for which the GI50 is 2.33 µM in the assay on A549 NSCLC; 10.1 µM in the assay with COLO 205 colon; 8.54 µM in the assay with HT29 colon; 0.279 µM in the assay on K-562 leukemia; 2.21 µM in the assay with KM12 colon; 9.93 µM in the assay with MALME-3M melanoma. Moreover, the GI50 with NCI-H23 lung is 7.46 µM; in the assay on SK-MEL-2 melanoma, 53.6 µM; with SNB-19 CNS, 8.89 µM; with UACC-62 melanoma, 4.17 µM. In addition, the total growth inhibition concentration (TGI) with A549 NSCLC is above 61.4 µM; with COLO 205 colon, 30.9 µM; in the assay on HT29 colon, above 100 µM; in the assay on K-562 leukemia it was above 47.8 µM; in the assay on KM12 colon, 46.2 µM; in the assay with MALME-3M melanoma it was 66.7 µM. Also, the concentration for total growth inhibition (TGI) with NCI-H23 lung is 36.1 µM; in the assay on SK-MEL-2 melanoma it was above 100 µM; in the assay with SNB-19 CNS it was above 100 µM; in the assay on UACC-62 melanoma it was 27.2 µM.

Take `COc1ccc(-c2nc3ccccn3c2/C=C/C(=O)c2cc(OC)c(OC)c(OC)c2)cc1OC`: the GI50 in the assay on A549 NSCLC is 3.86 µM; in the assay on COLO 205 colon, 3.92 µM; in the assay with HT29 colon it was 3.2 µM; in the assay with K-562 leukemia it was 2.99 µM; with KM12 colon it was 2.52 µM; in the assay on MALME-3M melanoma it was 2.36 µM. The GI50 was 3.78 µM with NCI-H23 lung, 2.37 µM in the assay with SK-MEL-2 melanoma, 4.91 µM in the assay with SNB-19 CNS and 4.86 µM in the assay on UACC-62 melanoma. Further, the TGI in the assay with A549 NSCLC is 30.7 µM; with COLO 205 colon, above 100 µM; in the assay with HT29 colon, above 100 µM; in the assay with K-562 leukemia, above 100 µM; in the assay with KM12 colon, 11.4 µM; in the assay on MALME-3M melanoma, 7.34 µM. The TGI in the assay on NCI-H23 lung was above 100 µM; with SK-MEL-2 melanoma, 7.19 µM; with SNB-19 CNS, above 100 µM; with UACC-62 melanoma, 22.1 µM.

Take `COc1ccc(C[N+](C)(C)N)cc1OC`: the GI50 in the assay on A549 NSCLC, in the assay with COLO 205 colon, in the assay on HT29 colon, in the assay on KM12 colon, in the assay on MALME-3M melanoma and in the assay with NCI-H23 lung was above 100 µM in each case. For the same compound, in the assay on SNB-19 CNS, the GI50 is above 100 µM. The concentration for total growth inhibition (TGI) in the assay with A549 NSCLC, in the assay on COLO 205 colon, with HT29 colon, in the assay on K-562 leukemia, with KM12 colon and in the assay on MALME-3M melanoma was above 100 µM throughout. For the same compound, the TGI in the assay on NCI-H23 lung, with SK-MEL-2 melanoma, in the assay with SNB-19 CNS and in the assay on UACC-62 melanoma was above 100 µM in each case.

Source of the values: PubChem BioAssay (NCI).
